Data taken from article PMC6812009, “Covalent Aurora A regulation by the metabolic integrator coenzyme A” (Redox Biology, 2019).
Like-named read-outs stand apart in the source and are kept apart here.

What was measured:
MNK1 = MNK1 (Homo sapiens, UniProt Q9BUB5); experiment: Kinase profiling screen (radioactive filter-binding assay); assay type: biochemical; settings: 100 μM compound, 50 μM ATP; read-out: Kinase activity, % of activity in the absence of inhibitor
Method in brief: (§1)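 Residual kinase activity is read in duplicate wells containing 100 μM final test compound (CoA, dpCoA or ADP). Recombinant kinases use model substrates at ATP levels optimal for each enzyme, across a 117-kinase screen.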

MLK1 = MLK1 (Homo sapiens, UniProt P80192); experiment: as above; assay type: biochemical; settings: 100 μM compound, 20 μM ATP; read-out: Kinase activity, % of activity in the absence of inhibitor
MLK1, sequence (P80192 whole entry): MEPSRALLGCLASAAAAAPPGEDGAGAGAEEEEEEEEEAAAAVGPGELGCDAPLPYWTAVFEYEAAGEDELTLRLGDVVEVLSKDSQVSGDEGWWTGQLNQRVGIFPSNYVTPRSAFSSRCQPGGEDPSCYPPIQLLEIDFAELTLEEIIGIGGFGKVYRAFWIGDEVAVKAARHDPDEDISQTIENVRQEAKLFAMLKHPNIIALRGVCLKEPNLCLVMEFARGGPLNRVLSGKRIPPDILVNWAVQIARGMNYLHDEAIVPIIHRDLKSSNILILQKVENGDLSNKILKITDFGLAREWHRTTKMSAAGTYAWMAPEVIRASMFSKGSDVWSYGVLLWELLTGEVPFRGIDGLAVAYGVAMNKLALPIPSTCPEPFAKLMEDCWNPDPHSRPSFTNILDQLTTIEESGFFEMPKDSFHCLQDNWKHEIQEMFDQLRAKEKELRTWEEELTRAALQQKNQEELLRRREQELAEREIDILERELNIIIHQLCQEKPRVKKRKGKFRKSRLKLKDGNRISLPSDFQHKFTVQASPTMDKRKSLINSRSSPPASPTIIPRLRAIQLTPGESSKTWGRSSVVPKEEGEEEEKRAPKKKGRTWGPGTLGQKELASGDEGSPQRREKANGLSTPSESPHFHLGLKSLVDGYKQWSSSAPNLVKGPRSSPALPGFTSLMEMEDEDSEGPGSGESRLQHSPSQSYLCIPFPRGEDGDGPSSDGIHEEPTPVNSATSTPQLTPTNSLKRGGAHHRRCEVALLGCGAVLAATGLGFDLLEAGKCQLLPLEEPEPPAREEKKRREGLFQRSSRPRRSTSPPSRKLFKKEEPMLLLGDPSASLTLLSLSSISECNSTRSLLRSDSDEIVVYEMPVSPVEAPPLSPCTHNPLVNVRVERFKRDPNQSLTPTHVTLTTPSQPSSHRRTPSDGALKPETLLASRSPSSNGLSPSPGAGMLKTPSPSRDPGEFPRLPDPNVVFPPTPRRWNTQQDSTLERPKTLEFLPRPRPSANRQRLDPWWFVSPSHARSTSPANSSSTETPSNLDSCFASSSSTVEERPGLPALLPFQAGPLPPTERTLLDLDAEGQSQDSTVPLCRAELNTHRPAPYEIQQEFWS
Method in brief: as §1

CHK2 = CHK2 (Homo sapiens, UniProt O96017); experiment: as above; assay type: biochemical; settings: 100 μM compound, 20 μM ATP; read-out: Kinase activity, % of activity in the absence of inhibitor
CHK2, sequence (O96017 whole entry): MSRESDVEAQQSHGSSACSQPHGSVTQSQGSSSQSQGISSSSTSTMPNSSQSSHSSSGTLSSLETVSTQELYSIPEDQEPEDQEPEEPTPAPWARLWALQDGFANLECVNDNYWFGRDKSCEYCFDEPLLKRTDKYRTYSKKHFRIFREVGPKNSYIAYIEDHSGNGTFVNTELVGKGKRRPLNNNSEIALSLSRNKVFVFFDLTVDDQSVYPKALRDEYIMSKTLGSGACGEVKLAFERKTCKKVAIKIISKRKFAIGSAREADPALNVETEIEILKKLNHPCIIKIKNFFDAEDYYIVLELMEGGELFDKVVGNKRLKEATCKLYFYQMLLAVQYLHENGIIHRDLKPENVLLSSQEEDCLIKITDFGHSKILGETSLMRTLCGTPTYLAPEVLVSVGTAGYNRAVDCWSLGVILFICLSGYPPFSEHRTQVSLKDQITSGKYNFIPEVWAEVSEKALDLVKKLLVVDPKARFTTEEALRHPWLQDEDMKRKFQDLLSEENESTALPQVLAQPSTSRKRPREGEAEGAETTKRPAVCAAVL
Method in brief: as §1

GSK3β = GSK3β (Homo sapiens, UniProt P49841); experiment: as above; assay type: biochemical; settings: 100 μM compound, 5 μM ATP; read-out: Kinase activity, % of activity in the absence of inhibitor
GSK3β, sequence (P49841 whole entry): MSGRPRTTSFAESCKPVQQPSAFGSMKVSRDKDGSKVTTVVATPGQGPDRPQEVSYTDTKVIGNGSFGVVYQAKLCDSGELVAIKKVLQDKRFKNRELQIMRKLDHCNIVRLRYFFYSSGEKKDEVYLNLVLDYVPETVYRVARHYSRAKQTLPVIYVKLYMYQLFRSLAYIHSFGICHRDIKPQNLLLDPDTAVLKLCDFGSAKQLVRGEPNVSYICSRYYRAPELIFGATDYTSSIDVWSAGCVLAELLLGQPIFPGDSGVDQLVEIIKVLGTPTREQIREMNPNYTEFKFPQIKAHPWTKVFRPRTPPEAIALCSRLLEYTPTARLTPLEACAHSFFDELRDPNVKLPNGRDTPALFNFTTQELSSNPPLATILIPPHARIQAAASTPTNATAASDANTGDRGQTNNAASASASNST
Method in brief: as §1

Src = Src (Homo sapiens, UniProt P12931); experiment: as above; assay type: biochemical; settings: for activity at 100 µM: 100 μM compound, 50 μM ATP, read-out: Kinase activity, % of activity in the absence of inhibitor
Src, sequence (P12931 whole entry): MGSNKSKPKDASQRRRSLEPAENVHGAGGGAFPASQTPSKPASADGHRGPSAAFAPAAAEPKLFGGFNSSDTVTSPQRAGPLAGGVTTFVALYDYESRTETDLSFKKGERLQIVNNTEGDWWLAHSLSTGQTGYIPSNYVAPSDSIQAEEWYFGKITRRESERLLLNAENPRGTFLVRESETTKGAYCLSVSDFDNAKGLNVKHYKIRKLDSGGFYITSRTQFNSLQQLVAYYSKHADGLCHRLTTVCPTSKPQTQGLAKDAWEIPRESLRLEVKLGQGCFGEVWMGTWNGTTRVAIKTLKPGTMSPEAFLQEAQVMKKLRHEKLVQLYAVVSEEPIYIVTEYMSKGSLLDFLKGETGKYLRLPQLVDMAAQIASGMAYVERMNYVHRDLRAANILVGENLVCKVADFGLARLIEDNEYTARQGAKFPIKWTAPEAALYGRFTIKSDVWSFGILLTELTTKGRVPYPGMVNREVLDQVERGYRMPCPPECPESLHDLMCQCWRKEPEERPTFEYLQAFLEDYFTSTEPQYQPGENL
Method in brief: as §1

HIPK1 = HIPK1 (Homo sapiens, UniProt Q86Z02); experiment: as above; assay type: biochemical; settings: 100 μM compound, 20 μM ATP; read-out: Kinase activity, % of activity in the absence of inhibitor
HIPK1, sequence (Q86Z02 whole entry): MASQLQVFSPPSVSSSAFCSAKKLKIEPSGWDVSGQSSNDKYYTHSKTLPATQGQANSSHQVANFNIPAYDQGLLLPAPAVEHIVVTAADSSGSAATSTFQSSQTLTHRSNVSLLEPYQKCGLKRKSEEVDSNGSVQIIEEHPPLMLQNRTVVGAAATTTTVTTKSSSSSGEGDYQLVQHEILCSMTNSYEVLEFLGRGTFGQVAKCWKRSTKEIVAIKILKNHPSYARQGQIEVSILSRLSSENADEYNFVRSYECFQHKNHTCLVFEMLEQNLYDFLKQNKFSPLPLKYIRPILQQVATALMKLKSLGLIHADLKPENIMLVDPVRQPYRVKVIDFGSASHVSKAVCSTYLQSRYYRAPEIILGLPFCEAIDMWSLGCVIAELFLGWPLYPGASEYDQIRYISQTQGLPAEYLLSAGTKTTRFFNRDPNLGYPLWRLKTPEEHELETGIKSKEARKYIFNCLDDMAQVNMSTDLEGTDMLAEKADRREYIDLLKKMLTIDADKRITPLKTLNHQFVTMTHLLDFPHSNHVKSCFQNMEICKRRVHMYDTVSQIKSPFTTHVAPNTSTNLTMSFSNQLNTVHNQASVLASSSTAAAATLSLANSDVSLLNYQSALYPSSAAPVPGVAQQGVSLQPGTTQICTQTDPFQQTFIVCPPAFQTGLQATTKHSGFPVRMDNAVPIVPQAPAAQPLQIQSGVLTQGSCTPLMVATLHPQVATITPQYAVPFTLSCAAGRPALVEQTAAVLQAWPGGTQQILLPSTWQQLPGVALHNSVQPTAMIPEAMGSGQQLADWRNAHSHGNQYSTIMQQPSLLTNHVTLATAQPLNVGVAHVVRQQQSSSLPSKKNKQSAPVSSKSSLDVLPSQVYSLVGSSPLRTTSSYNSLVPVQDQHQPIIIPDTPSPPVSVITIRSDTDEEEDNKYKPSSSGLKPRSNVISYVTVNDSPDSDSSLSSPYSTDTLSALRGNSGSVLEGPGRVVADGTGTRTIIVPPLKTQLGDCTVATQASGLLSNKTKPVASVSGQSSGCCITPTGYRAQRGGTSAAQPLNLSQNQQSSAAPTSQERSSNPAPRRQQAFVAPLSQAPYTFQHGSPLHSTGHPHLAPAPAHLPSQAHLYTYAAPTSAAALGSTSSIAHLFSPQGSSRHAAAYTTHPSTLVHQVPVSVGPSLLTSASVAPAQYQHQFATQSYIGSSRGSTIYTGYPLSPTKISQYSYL
Method in brief: as §1

STK33 = STK33 (Homo sapiens, UniProt Q9BYT3); experiment: as above; assay type: biochemical; settings: 100 μM compound, 50 μM ATP; read-out: Kinase activity, % of activity in the absence of inhibitor
STK33, sequence (Q9BYT3 whole entry): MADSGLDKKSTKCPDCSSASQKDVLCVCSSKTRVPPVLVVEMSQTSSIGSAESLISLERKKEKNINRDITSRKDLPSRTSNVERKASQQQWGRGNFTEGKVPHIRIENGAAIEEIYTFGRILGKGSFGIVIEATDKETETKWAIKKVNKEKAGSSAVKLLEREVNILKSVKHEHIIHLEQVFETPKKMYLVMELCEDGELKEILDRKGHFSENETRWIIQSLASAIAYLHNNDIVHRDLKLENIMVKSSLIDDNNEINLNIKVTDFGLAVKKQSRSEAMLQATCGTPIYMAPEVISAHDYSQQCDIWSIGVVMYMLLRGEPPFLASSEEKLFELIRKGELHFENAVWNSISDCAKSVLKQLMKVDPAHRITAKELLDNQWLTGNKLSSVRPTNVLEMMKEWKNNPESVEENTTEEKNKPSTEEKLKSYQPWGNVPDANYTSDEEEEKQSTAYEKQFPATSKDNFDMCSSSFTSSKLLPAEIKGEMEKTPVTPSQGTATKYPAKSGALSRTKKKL
Method in brief: as §1

GCK = molecular target: T1, GCK (Homo sapiens, UniProt Q12851); experiment: as above; assay type: biochemical; settings: 100 μM compound, 20 μM ATP; read-out: Kinase activity, % of activity in the absence of inhibitor
T1 sequence (Q12851 1-820): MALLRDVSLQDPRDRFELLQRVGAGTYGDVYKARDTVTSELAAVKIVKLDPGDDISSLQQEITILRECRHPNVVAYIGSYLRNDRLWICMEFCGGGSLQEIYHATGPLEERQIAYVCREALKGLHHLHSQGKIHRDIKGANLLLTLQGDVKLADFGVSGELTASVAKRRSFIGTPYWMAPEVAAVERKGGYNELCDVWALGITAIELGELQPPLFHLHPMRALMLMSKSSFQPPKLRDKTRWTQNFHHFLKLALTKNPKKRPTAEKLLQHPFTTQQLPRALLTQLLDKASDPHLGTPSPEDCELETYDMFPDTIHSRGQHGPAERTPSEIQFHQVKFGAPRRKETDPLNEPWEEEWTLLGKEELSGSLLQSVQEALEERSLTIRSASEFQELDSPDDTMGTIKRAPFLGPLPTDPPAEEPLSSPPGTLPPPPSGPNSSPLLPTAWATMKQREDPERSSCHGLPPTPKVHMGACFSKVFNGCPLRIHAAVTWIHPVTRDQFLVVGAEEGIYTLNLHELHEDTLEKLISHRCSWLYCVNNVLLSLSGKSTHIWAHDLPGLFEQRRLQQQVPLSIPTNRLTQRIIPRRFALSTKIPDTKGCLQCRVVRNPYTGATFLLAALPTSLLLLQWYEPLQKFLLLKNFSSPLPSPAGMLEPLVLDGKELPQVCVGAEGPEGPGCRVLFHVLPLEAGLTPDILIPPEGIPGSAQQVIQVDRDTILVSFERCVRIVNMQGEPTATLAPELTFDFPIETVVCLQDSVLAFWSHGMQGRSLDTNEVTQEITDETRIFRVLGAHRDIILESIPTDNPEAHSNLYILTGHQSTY
Method in brief: as §1

Aurora A (active) = molecular target: T2, Aurora A (active) (Homo sapiens, UniProt O14965); experiment: In vitro Aurora A kinase assay (γ33P-ATP incorporation into myelin basic protein); assay type: biochemical
T2 construct: Bacterially expressed full-length His-Aurora A was used to determine the IC50 value for CoA; made in house; host or cells: E. coli BL21 (DE3) pLysS
T2 sequence (O14965 1-403): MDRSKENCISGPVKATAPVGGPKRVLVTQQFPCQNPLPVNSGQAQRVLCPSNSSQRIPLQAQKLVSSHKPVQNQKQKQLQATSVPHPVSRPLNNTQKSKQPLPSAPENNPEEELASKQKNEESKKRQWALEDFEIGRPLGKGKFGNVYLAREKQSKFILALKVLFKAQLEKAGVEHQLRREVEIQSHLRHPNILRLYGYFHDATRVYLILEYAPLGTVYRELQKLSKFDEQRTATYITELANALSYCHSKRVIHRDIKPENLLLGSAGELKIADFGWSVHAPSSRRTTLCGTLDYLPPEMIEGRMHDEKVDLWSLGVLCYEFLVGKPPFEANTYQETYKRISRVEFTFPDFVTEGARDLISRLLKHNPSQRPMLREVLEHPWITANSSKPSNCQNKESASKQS
Procedure: (§2) Profiling of 117 protein kinases with CoA, dpCoA and ADP was carried out at the International Centre for Protein Kinase Profiling at the University of Dundee. Each compound was tested in vitro, in duplicate, at 100 μM final concentration using recombinant kinases, model substrates and optimal concentrations of ATP. Bacterially expressed full-length His-Aurora A was used to determine the IC50 value for CoA (in the presence or absence of DTT), dpCoA, ADP and desulfo-CoA. The assay was performed in the presence of 5 μM competing ATP. To examine whether the inhibitory effect of CoA on Aurora A is modulated by TPX2, IC50 values for CoA were also generated in the presence and absence of 1 μg TPX2 (residues 1–43) fragment.
Aurora A kinase activity was assayed by measuring incorporation of γ^33P-ATP into myelin basic protein (Sigma). Purified recombinant protein (100 ng) was incubated at room temperature for 30 min in a total volume of 15 μl containing 50 mM HEPES pH 7.5, 10 mM MgCl2, 1 mM EGTA, 0.05% Brij-35, 0.5 mg/ml myelin basic protein, and 5 μM γ^33P-ATP (100–10,000 dpm/pmol). The reaction was stopped by spotting the reaction mixture onto squares of P81 phosphocellulose ion exchange paper (Whatmann), which were then immersed in 1.5% (v/v) phosphoric acid. After washing twice in 1% phosphoric acid followed by two washes in distilled water, the papers were air dried and radioactivity was counted by a scintillation counter and recorded by Quantasmart version 2.03.

CAMKK = experiment: Kinase profiling screen (radioactive filter-binding assay); assay type: biochemical, human; settings: 100 μM compound, 20 μM ATP
Procedure: as §2

AMPK = experiment: as above; assay type: biochemical, human; settings: 100 μM compound, 50 μM ATP
Procedure: as §2

ROCK 2 = experiment: as above; assay type: biochemical, human; settings: 100 μM compound, 20 μM ATP
Procedure: as §2

[1] = 5 μM competing ATP, read-out: Aurora A (active) IC50 (μM), activity assay

MNK1, sequence (Q9BUB5 whole entry): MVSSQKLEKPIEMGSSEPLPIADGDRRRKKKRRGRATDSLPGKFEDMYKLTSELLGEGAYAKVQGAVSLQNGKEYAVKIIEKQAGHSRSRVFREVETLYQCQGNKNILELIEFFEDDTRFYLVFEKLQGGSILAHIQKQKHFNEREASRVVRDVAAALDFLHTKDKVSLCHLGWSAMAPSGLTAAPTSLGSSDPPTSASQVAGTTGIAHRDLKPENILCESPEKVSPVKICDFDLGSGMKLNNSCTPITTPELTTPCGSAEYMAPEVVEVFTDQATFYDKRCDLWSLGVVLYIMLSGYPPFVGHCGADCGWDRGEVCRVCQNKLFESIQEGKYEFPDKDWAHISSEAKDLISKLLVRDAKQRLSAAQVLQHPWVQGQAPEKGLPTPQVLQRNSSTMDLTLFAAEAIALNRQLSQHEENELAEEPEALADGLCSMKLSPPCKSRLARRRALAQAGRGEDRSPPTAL

| SMILES | activity at 100 µM (MNK1) [%] | activity at 100 µM (MLK1) [%] | activity at 100 µM (CHK2) [%] | activity at 100 µM (GSK3β) [%] | inhibition at 100 µM (Src; 100 μM CoA, kinase profiling screen) [%] | activity at 100 µM (Src) [%] | SRC inhibition (in words) (Src; kinase profiling, 100 μM) | activity at 100 µM (HIPK1) [%] | activity at 100 µM (STK33) [%] | activity at 100 µM (GCK) [%] | IC50 (Aurora A (active); 5 μM ATP, 1 mM DTT, read-out: IC50, Aurora A kinase activity in the presence of DTT) [µM] | IC50 (Aurora A (active); 5 μM ATP, absence of DTT, read-out: IC50, Aurora A kinase activity) [µM] | IC50 (Aurora A (active); [1]) [µM] | TPX2-induced kinase activation after pre-incubation of Aurora A with CoA (Aurora A (active); 100 μM CoA pre-incubation, DTT-sensitive) | Inhibitory effect on Aurora A in the presence of TPX2 1–43 fragment (Aurora A (active); presence of TPX2 (residues 1–43), serial dilutions of CoA) | Kinase activity, % of activity in the absence of inhibitor (CAMKK) [%] | Kinase activity, % of activity in the absence of inhibitor (AMPK) [%] | Kinase activity, % of activity in the absence of inhibitor (ROCK 2) [%] |
| --- | --- | --- | --- | --- | --- | --- | --- | --- | --- | --- | --- | --- | --- | --- | --- | --- | --- | --- |
| CC(C)(COP(=O)(O)OP(=O)(O)OC[C@H]1O[C@@H](n2cnc3c(N)ncnc32)[C@H](O)[C@@H]1OP(=O)(O)O)[C@@H](O)C(=O)NCCC(=O)NCCS [CoA, Coenzyme A] | 150 | 110 | 88.9 | 94.7 | ≤ 50 | 43.8 | modestly inhibited | 115 | 71.8 | 109 | 47 | ~5 | 5 | attenuated | completely abrogated the inhibitory effect | 97.4 | 90.8 | 94.3 |
| Nc1ncnc2c1ncn2C1OC(COP(=O)(O)OP(=O)(O)O)C(O)C1O (stereo not drawn) [ADP] | 60.7 | 41.4 | 43.2 | 18.2 |  | 31.8 |  | 31.7 | 54.6 | 56.5 |  |  | 54 |  |  | 52.9 | 54.1 | 57.8 |
| CC(C)(COP(=O)(O)OP(=O)(O)OCC1OC(n2cnc3c(N)ncnc32)C(O)C1O)C(O)C(=O)NCCC(=O)NCCS (stereo not drawn) [dpCoA, dephospho-CoA] | 84.2 | 76 | 56 | 72.1 |  | 8.9 |  | 92.8 | 83.3 | 71.2 |  |  | 17 |  |  | 71.4 | 75.9 | 96.4 |
